Patent US4326054A, “Cleomycins and process for producing same” (Zaidan Hojin Biseibutsu Kagaku Kenkyu Kai, priority 1979, dated 1982)

How the values were obtained:
[1] = tested on: Mycobacterium smegmatis ATCC 607; test: Antimicrobial activity, agar plate-cylinder method, bleomycin A2 as standard (1,000 u/mg); format: cell-based; settings: Examples, Step A; hydrochloride, copper-containing form; bleomycin A2 = 1,000 u/mg
[2] = tested on: Mycobacterium smegmatis ATCC 607; test: as above; format: cell-based; settings: copper-free form; for Antimicrobial potency: bleomycin A2 = 1,000 u/mg; for Antimicrobiral potency: Table 5, relative to bleomycin A2 = 1,000 u/mg
Protocol: Typical examples of the biological activities measured on cleomycins (copper-free form) are illustrated below.
Comparison was made with the relevant antibiotics bleomycins. The relative antimicrobial potency (u/mg) against Mycobacterium smegmatis ATCC 607 was measured by agar plate-cylinder method using bleomycin A2 as a standard (1,000 u/mg).
(Note: The antimicrobial potency was determined by taking bleomycin
A2 as 1,000 μ/mg and using Mycobacterium smegmatis ATCC 607 as a
test bacterium. Herinafter, the same was applied.)

[3] = tested on: HeLa S3 cells; test: Activity on cultured HeLa S3 cells (growth inhibition); format: cell-based
Protocol: Fifty percent inhibitory cocentration (LD50) was determined on a test compound cleomycin (No. 33) and on a reference compound bleomycin A2, from the percent of growth inhibition measured on HeLa S3 cells after the cells had been cultured in the presence of each of the compounds.

[4] = Solubility (physical and chemical properties, Tables 4-1 and 4-2); settings: hydrochloride, also soluble in dimethylformamide, dimethylsulfoxide, and methanol
[5] = Examples, Step B, hydrochloride

Compound | Antimicrobial potency [1] | Antimicrobial potency [2, 5] | Antimicrobiral potency [2] | also measured
CCCCNCCCNCCCNC(=O)c1csc(-c2csc(CCNC(=O)C(NC(=O)C(C)C(O)C(C)NC(=O)C(NC(=O)c3nc(C(CC(N)=O)NCC(N)C(N)=O)nc(N)c3C)C(OC3OC(CO)C(O)C(O)C3OC3OC(CO)C(O)C(OC(N)=O)C3O)c3cnc[nH]3)C3(O)CC3)n2)n1 (stereo not shown) | 8,130 u/mg | 7,942 u/mg |  | 
Cc1c(N)nc(C(CC(N)=O)NCC(N)C(N)=O)nc1C(=O)NC(C(=O)NC(C)C(O)C(C)C(=O)NC(C(=O)NCCc1nc(-c2nc(C(=O)NCCCNCCCCN)cs2)cs1)C1(O)CC1)C(OC1OC(CO)C(O)C(O)C1OC1OC(CO)C(O)C(OC(N)=O)C1O)c1cnc[nH]1 (stereo not shown) | 3,520 u/mg | 3,575 u/mg |  | 
Cc1c(N)nc(C(CC(N)=O)NCC(N)C(N)=O)nc1C(=O)NC(C(=O)NC(C)C(O)C(C)C(=O)NC(C(=O)NCCc1nc(-c2nc(C(=O)NCCCCNC(=N)N)cs2)cs1)C1(O)CC1)C(OC1OC(CO)C(O)C(O)C1OC1OC(CO)C(O)C(OC(N)=O)C1O)c1cnc[nH]1 (stereo not shown) [4-guanidinobutylaminocleomycin] | 3,350 u/mg | 3,262 u/mg |  | 
Cc1c(N)nc(C(CC(N)=O)NCC(N)C(N)=O)nc1C(=O)NC(C(=O)NC(C)C(O)C(C)C(=O)NC(C(=O)NCCc1nc(-c2nc(C(=O)NCCC[S+](C)C)cs2)cs1)C(C)O)C(OC1OC(CO)C(O)C(O)C1OC1OC(CO)C(O)C(OC(N)=O)C1O)c1cnc[nH]1 (stereo not shown) [Bleomycin A2, reference compound] |  |  |  | IC50 ([3]; Homo sapiens, HeLa S3, read-out: LD50 (fifty percent inhibitory concentration, growth inhibition)): 0.73 µg/mL
Cc1c(N)nc(C(CC(N)=O)NCC(N)C(N)=O)nc1C(=O)NC(C(=O)NC(C)C(O)C(C)C(=O)NC(C(=O)NCCc1nc(-c2nc(C(=O)NCCCN(C)CCCN)cs2)cs1)C1(O)CC1)C(OC1OC(CO)C(O)C(O)C1OC1OC(CO)C(O)C(OC(N)=O)C1O)c1cnc[nH]1 (stereo not shown) [Compound No. 20, 3-[N-methyl-N-(3-aminopropyl)]aminopropylaminocleomycin] | 2,300 u/mg | 2,273 u/mg | 2,273 u/mg | 
Cc1c(N)nc(C(CC(N)=O)NCC(N)C(N)=O)nc1C(=O)NC(C(=O)NC(C)C(O)C(C)C(=O)NC(C(=O)NCCc1nc(-c2nc(C(=O)NCCCNC(C)c3ccccc3)cs2)cs1)C1(O)CC1)C(OC1OC(CO)C(O)C(O)C1OC1OC(CO)C(O)C(OC(N)=O)C1O)c1cnc[nH]1 (stereo not shown) [Compound No. 33, 3-[(s)-1'-phenylethylamino]propylaminocleomycin] | 11,300 u/mg |  | 10,949 u/mg | anti-HeLa action compared with bleomycin A2 (in words) ([3]; copper-free hydrochloride): activity nearly equal to that of bleomycin A2; Antimicrobial potency ([2]; Example 1, Step B, sulfate): 10,949 u/mg
Cc1c(N)nc(C(CC(N)=O)NCC(N)C(N)=O)nc1C(=O)NC(C(=O)NC(C)C(O)C(C)C(=O)NC(C(=O)NCCc1nc(-c2nc(C(=O)NCCC[S+](C)C)cs2)cs1)C1(O)CC1)C(OC1OC(CO)C(O)C(O)C1OC1OC(CO)C(O)C(OC(N)=O)C1O)c1cnc[nH]1 (stereo not shown) [compound 1, 3-s,s-dimethylmercaptopropylaminocleomycin] | 1,360 u/mg | 1,320 u/mg | 1,320 u/mg | Solubility ([4]; copper-containing form): Soluble in water; Solubility ([4]; copper-free form): Soluble in water
CCCCNCCCNCCCNC(=O)c1csc(-c2csc(CCNC(=O)C(NC(=O)C(C)C(O)C(C)NC(=O)C(NC(=O)c3nc(C(CC(N)=O)NCC(N)C(N)=O)nc(N)c3C)C(OC3OC(CO)C(O)C(O)C3OC3OC(CO)C(O)C(OC(N)=O)C3O)c3cnc[nH]3)C3(O)CC3)n2)n1 (stereo not shown) [compound 11, 3-(3-n-butylaminopropylamino)propylaminocleomycin] |  |  | 7,942 u/mg | Solubility ([4]; copper-containing form): Soluble in water; Solubility ([4]; copper-free form): Soluble in water
